From patent US8420312B2, “Genes associated with canine osteoarthritis and related methods and compositions” (Nestec S.A., priority 2004, dated 2013)

Legend:
Assay type in all cases: cell-based, canine
OA-Associated Genes [1] = assay: Microarray analysis of chondrocyte beads treated with 1,25 D3 or 24,25 D3; conditions: summary statement, Tables 19-20
Description: Microarray probes were generated by PCR-amplifying clones isolated from differential display. Probes were spotted in duplicate onto poly-L-lysine coated slides using a GMS417 (Affymetrix) arrayer. Osteoarthritic cartilage samples were obtained from the femoral heads of clinically diagnosed canines undergoing total […] replacement. RNA was hybridized to the slides using the HC ExpressArray ([…]) kit and visualized using a GMS418 (Affymetrix) scanner. The […] (Biodiscovery) program was used for spot finding and subsequent data analysis was performed using GeneSight (Biodiscovery). Expression levels are represented after background subtraction, log(base 2) transformation and global slide signal normalization. […] Scanned images representing RNA transcripts bound to specific clones were quantified and checked for spot quality control using […] analysis software (BioDiscovery). Quantified images were analyzed using […] analysis software (BioDiscovery). The analysis represented subtraction of background surrounding the spots, averaging spot replicates, deletion of clone information representing clone hybridization signals not greater than 200 above background on all samples, log (base 2) transformation and global normalization of each slide (values expressed as percent of average spot intensity). […]

OA-Associated Genes [2] = assay: Microarray analysis of chondrocyte beads treated with glucosamine; conditions: summary statement, Tables 13-18
Description: (§1) Microarray probes were generated by PCR-amplifying clones isolated from differential display. Probes were spotted in duplicate onto poly-L-lysine coated slides using a GMS417 (Affymetrix) arrayer. Osteoarthritic cartilage samples were obtained from the femoral heads of clinically diagnosed canines undergoing total […] replacement. RNA was hybridized to the slides using the HC ExpressArray (Digene) kit and visualized using a GMS418 (Affymetrix) scanner. The Imagene (Biodiscovery) program was used for spot finding and subsequent data analysis was performed using GeneSight (Biodiscovery). Expression levels are represented after background subtraction, log(base 2) transformation and global slide signal normalization. […]
(§2) Scanned images representing RNA transcripts bound to specific clones were quantified and checked for spot quality control using Imagene analysis software (BioDiscovery). Quantified images were analyzed using Genesight analysis software (BioDiscovery). The analysis represented subtraction of background surrounding the spots, averaging spot replicates, deletion of clone information representing clone hybridization signals not greater than 200 above background on all samples, log (base 2) transformation and global normalization of each slide (values expressed as percent of average spot intensity). […]

OA-Associated Genes [3] = assay: Microarray analysis of chondrocytes enriched with EPA or AA; conditions: summary statement, Tables 21-23
Description: as §1, §2

OA-Associated Genes [4] = assay: Microarray analysis of chondrocyte beads treated with chondroitin sulfate; conditions: summary statement, Tables 7-12
Description: as §1, §2

## C=C1/C(=C\C=C2/CCC[C@]3(C)[C@@H]([C@H](C)CCCC(C)(C)O)CC[C@@H]23)C[C@@H](O)C[C@@H]1O [1α,25-dihydroxyvitamin D3]
OA-Associated Genes [1]
  effect on expression of OA-related genes: affected the expression of OA-related genes

## C=C1CC[C@H](O)C/C1=C/C=C1\CCC[C@]2(C)[C@@H]([C@H](C)CC[C@@H](O)C(C)(C)O)CC[C@@H]12 [24R,25-dihydroxyvitamin D3]
OA-Associated Genes [1]
  effect on expression of OA-related genes: affected the expression of OA-related genes

## N[C@H]1C(O)O[C@H](CO)[C@@H](O)[C@@H]1O (some centres unmarked) [Glucosamine, glucosamine]
OA-Associated Genes [2]
  effect on OA-associated genes: have an effect on a variety of OA-associated genes

## CCCCC/C=C\C/C=C\C/C=C\C/C=C\CCCC(=O)O [arachidonic acid (AA), arachidonic acid]
OA-Associated Genes [3]
  effect on OA-related genes: affect OA-related genes

## chondroitin sulfate
OA-Associated Genes [4]
  effect on OA-associated genes: have an effect on a wide variety of OA-associated genes
